This is an account of results in US8536196B2, “Substituted 1,3-dioxanes useful as PPAR modulators” (Evolva SA, priority 2007, dated 2013).

One data set concerns the target T1, PPARgamma (h) (Homo sapiens, UniProt P37231).
T1 construct: host or cells: E. coli
T1 sequence (P37231 1-505): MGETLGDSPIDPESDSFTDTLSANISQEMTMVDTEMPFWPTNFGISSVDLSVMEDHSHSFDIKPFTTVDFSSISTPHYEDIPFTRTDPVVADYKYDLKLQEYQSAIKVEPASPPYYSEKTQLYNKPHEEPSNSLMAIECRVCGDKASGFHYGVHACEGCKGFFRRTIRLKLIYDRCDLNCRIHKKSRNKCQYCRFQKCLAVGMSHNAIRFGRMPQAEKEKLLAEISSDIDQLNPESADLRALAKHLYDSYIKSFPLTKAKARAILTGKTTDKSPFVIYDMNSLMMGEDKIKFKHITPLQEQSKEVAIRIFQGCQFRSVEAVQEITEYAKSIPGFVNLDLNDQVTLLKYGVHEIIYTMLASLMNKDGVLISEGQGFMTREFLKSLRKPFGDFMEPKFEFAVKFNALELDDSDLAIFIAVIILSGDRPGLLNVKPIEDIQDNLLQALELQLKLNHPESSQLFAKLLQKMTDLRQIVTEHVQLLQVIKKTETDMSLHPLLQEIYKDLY
Nature of the data set: Human recombinant (E. coli) PPARgamma (h) binding assay. To be noted: @ 30 μM. How it is done:
The results are expressed as a percent of control specific binding ((measured specific binding/control specific binding)×100) obtained in the presence of the test compounds. The IC50 values (concentration causing a half-maximal inhibition of control specific binding) and Hill coefficients (nH) were determined by non-linear regression analysis of the competition curves generated with mean replicate values using Hill equation curve fitting (Y=D+[(A D)/(1+(C/C50)nH)], where Y=specific binding, D=minimum specific binding, A=maximum specific binding, C=compound concentration, C50=IC50, and nH=slope factor). This analysis was performed using a software developed at Cerep (Hill software) and validated by comparison with data generated by the commercial software SigmaPlot® 4.0 for Windows® (© 1997 by SPSS Inc.). The inhibition constants (Ki) were calculated using the Cheng Prusoff equation (Ki=IC50/(1+(L/KD)), where L=concentration of radioligand in the assay, and KD=affinity of the radioligand for the receptor).

For data set [1], the system named is 1.5 μM U-46619-induced platelet aggregation (platelet rich plasma). Nature of the data set: TP receptor platelet aggregation - rabbit. To be noted: Oryctolagus cuniculus, @ 0.1 mM (printed in the 30 μM column). The format is cell-based, New Zealand Rabbit. An excerpt:
TP Receptor Platelet Aggregation—Rabbit:
Thrombosis Research 33:277-288

A short description of data set [2]: Glucose lowering effect in KKAy mouse model. The class given is in vivo. To be noted: male, mouse, serum; KKA^y mice, 53 mg/kg BID oral gavage 14 days, 4 hours after the last administration, average ± S.E.M.; read-out: Serum level of the compound. How it is done: (§1) 52 male KKA^y mice were obtained commercially (e.g., from Clea Japan) at an age of 6 weeks and put on a high fat diet upon arrival. Individual mice were housed in IVC Type II cages during both the acclimatization and the experimental phase. Both food (high fat diet) and water were supplied ad libitum.
(§2) Mice were randomized into treatment groups according to their 4-h fasting blood glucose.
(§3) 4 hours after the last administration, non-fasting conditions.
(§4) Blood was collected into heparin containing glass capillaries which were subsequently centrifuged in a “Haematokrit 24” centrifuge (Hettich) at 15′200×g for 10 min at room temperature to obtain the hematocrit value.
(§5) The following serum parameters were determined on a COBAS INTEGRA 800 auto analyzer (Roche Diagnostics, Switzerland) using the reagents and protocols provided by the supplier.
(§6) All measurements were made on Day 14 of administration, except for the food intake and body weight measurements that were made on Day 12.

The next data set concerns KKA^y mice. Nature of the data set: Glucose lowering effect in KKAy mouse model. The class given is in vivo. As to the method:
as §1, §2, §3, §4, §5, §6

Data set [3] has as its system mice (FeCl3 induced femoral artery thrombosis). In words: FeCl3 arterial thrombosis mouse model (occlusion time, blood flow). The class given is in vivo. As to the method:
The solutions were diluted 3.3-fold in saline and 100 μl/25 g was injected.
During the experiments, a soluble potassium salt of the drug was provided, diluted in saline. Of this formulation, 100 μl/25 g was injected i.v. in the tail vein (dose of 100 mg/kg).
Aspirin is given the same way at a dose of 200 mg/kg. Clopidogrel is administered by oral gavage at a dose of 20 mg/kg at 6-7 hours prior to the experiment. The solutions were coded (except for clopidogrel) and the operator was blinded to the code. The animals assigned to each group were matched for body weight. All mice used were 8-10 weeks old males and were in a 100% Swiss genetic background.
(§7) The flow in each image is expressed as a percentage of that at the contralateral side, and data are averaged for all 120 images to determine total flow. The same analysis is performed for 10 min intervals (which gives essentially the same information as the area under the curve). […] Flow before treatment is recorded as 100%, and that in occluded arteries as 0%. At the end of the experiment, blood is collected on 0.01M citrate by heart puncture for determination of blood cell counts. Plasma is prepared by centrifugation and stored at −20° C. for determination of drug levels.
Statistical analysis for differences between two groups is performed by non-parametric Student t-test. Occlusion times >30 min were considered equal to 30 min for statistical analysis. It should be noted that this approach may result in a statistical bias, the more so because the number of experiments is not the same in the different groups. Significance is set at p<0.05.

Data set [4] is described as follows: Blood cell analysis at end of thrombosis experiment. The format is in vivo, mouse. How it is done:
as §7
Table VI summarizes the results of blood cell analysis performed on a sample taken at the end of the observation period. (Z)-6-((2S,4S,5R)-2-(2-chlorophenyl)-4-(2-hydroxyphenyl)-1,3-dioxan-5-yl)hex-4-enoic is referred to in Table VI as EV.

[5] abbreviates: 53 mg/kg BID oral gavage 14 days, Day 14, average ± S.E.M.
Setting [6] is: 30 mg/kg vehicle i.v., n = 4, mean ± SEM.
[7] abbreviates: 100 mg/kg vehicle i.v., n = 9, mean ± SEM.

A word on the inhibition: it is the share of the control response that was lost under treatment.

As to `O=C(O)CC/C=C\C[C@H]1COC(c2ccccc2Cl)O[C@H]1c1ccccc1O` (single isomer, unassigned) [Compound A], at PPARgamma (h), the “PPARgamma binding @ 30 μM” value is “no binding”. Besides, in data set [1], 100 µM produced 15% inhibition.

On to `O=C(O)CC/C=C\C[C@@H]1CO[C@H](c2ccccc2Cl)O[C@@H]1c1ccccc1O` (single isomer, unassigned) [Compound B], for which the concentration at 4 h in data set [2] was 161 ± 60 ng/mL. In the data set with KKA^y mice (setting [5]), this compound displayed an ALP of 21.5 ± 1.6 dU/L, an ALT of 5.1 ± 0.6 dU/L, an AST of 7.7 ± 1.0 dU/L and a Hematocrit of 40.1 ± 1.6%. Further, the “Serum Glucose” value with KKA^y mice (setting [5]) is “decreased”. Besides, in the data set on KKA^y mice (53 mg/kg BID oral gavage 14 days, Day 14, average ± S.E.M., listed as (Z)-6-(2S,4S,5R)-2-(2-chlorophenyl)-4-(2-hydroxyphenyl)-1,3-dioxan-5-yl(hex-4-e, 53 mg/kg)), the FFA entry is “slightly decreased”. The “Food Intake” value with KKA^y mice (53 mg/kg BID oral gavage, Day 12, average ± S.E.M.) is listed as 5.0 ± 0.6 g/day. For the same compound, in data set [3] (30 mg/kg in vehicle (DMSO/PEG 400) i.v.), the occlusion time result is listed as “slightly prolongs the occlusion time as compared to aspirin (p=0.024), but has no effect as compared to vehicle”. For the same compound, in data set [3] (30 mg/kg in vehicle i.v.), the total blood flow result is “no effect”. Moreover, in data set [3] (100 mg/kg in vehicle i.v.), the “blood flow, time window 0-10 min” value is “significantly higher flow as compared to aspirin (p=0.0002) but not as compared to vehicle only (p=0.11)” and the total blood flow result was “improved total blood flow as compared to aspirin (p=0.055), but not as compared to vehicle (p=0.45)”. In data set [4] (setting [6]), this compound came in with a Hematocrit of 62 ± 7.3%, a Hemoglobin of 15 ± 0.28 g/dL, a Lymphocytes of 42 ± 4.7% and a Neutrophils of 56 ± 5.3%. Besides, in data set [4] (setting [6]), the Platelets is given as 1020 ± 89 ×10^3/μl, the Red blood cells is 9.1 ± 0.26 ×10^6/μl and the White blood cells is 0.95 ± 0.17 ×10^3/μl. In data set [4] (setting [7]), this compound had a Hematocrit of 70 ± 3.5%, a Hemoglobin of 15 ± 0.30 g/dL, a Lymphocytes of 58 ± 11% and a Neutrophils of 34 ± 12%. Besides, in data set [4] (setting [7]), the Platelets is 895 ± 46 ×10^3/μl, the Red blood cells is on record as 9.2 ± 0.17 ×10^6/μl and the White blood cells is given as 1.5 ± 0.46 ×10^3/μl.
